Drawing on US9556179B2 (BRISTOL-MYERS SQUIBB COMPANY, priority 2012, dated 2017), this text covers IC50 for 13 molecules.

pIC50: −log10 of the molar value.

One test concerns the target CK1ε (Homo sapiens (Human), UniProt P49674). Briefly: CK1ε kinase assay (Caliper LABCHIP electrophoretic separation of fluoresceinated peptide substrate and product). In kind it is biochemical. Conditions: 200 pM enzyme, 50 μM ATP, 22 hours at room temperature. A digest of the protocol:
(§1)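 IC50 values were obtained by non-linear regression from eleven-concentration titrations. The kinase reactions were incubated for 22 hours at room temperature before termination with 35 mM EDTA.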

A further test deals with CK1δ (Homo sapiens (Human), UniProt P48730). The test can be described thus: CK1δ kinase assay (Caliper LABCHIP electrophoretic separation of fluoresceinated peptide substrate and product). In kind it is biochemical. Conditions: 200 pM enzyme, 50 μM ATP, 22 hours at room temperature. A digest of the protocol:
as §1

Sequence of CK1ε (P49674 whole entry): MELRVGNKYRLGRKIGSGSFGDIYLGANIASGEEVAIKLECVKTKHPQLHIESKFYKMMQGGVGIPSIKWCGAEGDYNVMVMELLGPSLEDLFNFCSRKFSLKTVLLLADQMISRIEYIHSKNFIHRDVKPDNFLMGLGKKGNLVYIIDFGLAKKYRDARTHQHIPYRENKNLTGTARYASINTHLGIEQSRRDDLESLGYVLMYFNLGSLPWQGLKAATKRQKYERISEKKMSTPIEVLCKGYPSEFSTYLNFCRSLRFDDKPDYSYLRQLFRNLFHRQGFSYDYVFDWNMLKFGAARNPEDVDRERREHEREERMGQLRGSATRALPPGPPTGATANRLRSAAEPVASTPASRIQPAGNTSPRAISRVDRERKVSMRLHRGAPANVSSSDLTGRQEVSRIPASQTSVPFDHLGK
Sequence of CK1δ (P48730 whole entry): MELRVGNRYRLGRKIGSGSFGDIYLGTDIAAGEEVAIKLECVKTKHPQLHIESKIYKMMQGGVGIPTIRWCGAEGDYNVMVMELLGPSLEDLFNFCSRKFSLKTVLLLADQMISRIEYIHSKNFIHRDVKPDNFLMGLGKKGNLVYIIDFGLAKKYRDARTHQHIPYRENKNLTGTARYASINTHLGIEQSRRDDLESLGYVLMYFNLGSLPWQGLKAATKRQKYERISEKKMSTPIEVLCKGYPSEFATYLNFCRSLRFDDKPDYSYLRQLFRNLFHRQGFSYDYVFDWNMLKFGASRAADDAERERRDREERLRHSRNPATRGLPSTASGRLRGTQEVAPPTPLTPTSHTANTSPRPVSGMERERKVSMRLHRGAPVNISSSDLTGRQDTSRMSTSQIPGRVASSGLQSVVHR

One may read the pIC50 as −log10 of the IC50, conventionally taken in molar units. `CNc1ccc2nc(-c3ccc(F)cc3)c(-c3ccc4nc(NC(=O)c5ccncc5)cn4n3)n2n1` [Compound 225, N-(2-(4-fluorophenyl)-6-(methyl-amino)-[3,6′-biimidazo[1,2-b]pyridazin]-2′-yl)isonicotinamide]: the figures for the pIC50 on CK1ε and on CK1δ were 7.98 and 8.55, respectively.
For `O=C(Nc1cn2nc(-c3c(-c4ccc(F)cc4)nc4ccc(N5CCOCC5)nn34)ccc2n1)c1ccncc1` [Compound 226, N-(2-(4-fluorophenyl)-6-morpholino-[3,6′-biimidazo[1,2-b]pyridazin]-2′-yl)isonicotinamide] the same measures were 7.99 and 8.31.
For `O=C(Nc1cn2nc(-c3c(-c4ccc(F)cc4)nc4ccc(NC5CCC5)nn34)ccc2n1)c1ccncc1` [Compound 227] the same measures were 7.43 and 7.90.
For `Cc1nc(-c2ccc(F)cc2)c(-c2ccc3nc(NC(=O)c4ccncc4)cn3n2)[nH]1` [Compound 228, N-(6-(4-(4-fluorophenyl)-2-methyl-1H-imidazol-5-yl)imidazo[1,2-b]pyridazin-2-yl)isonicotinamide], in that order: 8.74 and 8.68.
`CCCn1cnc(-c2ccc(F)cc2)c1-c1ccc2nc(NC(=O)c3ccnc(F)c3)cn2n1` [Compound 229, 2-Fluoro-N-(6-(4-(4-fluorophenyl)-1-propyl-1H-imidazol-5-yl)imidazo[1,2-b]pyridazin-2-yl)isonicotinamide]: the pIC50 at CK1ε is 8.59; on CK1δ, 9.32.
For `O=C(Nc1cn2nc(-c3c(-c4ccc(F)cc4)ncn3CCO)ccc2n1)c1ccnc(F)c1` [Compound 230, 2-fluoro-N-(6-(4-(4-fluorophenyl)-1-(2-hydroxyethyl)-1H-imidazol-5-yl)imidazo[1,2-b]pyridazin-2-yl)isonicotinamide], in that order: 8.47 and 9.34.
For `Cn1cnc(-c2ccc(F)cc2)c1-c1ccc2nc(NC(=O)c3ccnc(F)c3)cn2n1` [Compound 231, 2-fluoro-N-(6-(4-(4-fluorophenyl)-1-methyl-1H-imidazol-5-yl)imidazo[1,2-b]pyridazin-2-yl) isonicotinamide] the same measures were 8.54 and 9.38.
Regarding `CCn1cnc(-c2ccc(F)cc2)c1-c1ccc2nc(NC(=O)c3ccnc(F)c3)cn2n1` [Compound 232, N-(6-(1-ethyl-4-(4-fluorophenyl)-1H-imidazol-5-yl)imidazo[1,2-b]pyridazin-2-yl)-2-fluoroiso-nicotinamide], the pIC50 on CK1ε was 8.81; against CK1δ, 9.49.
As for `COCCn1cnc(-c2ccc(F)cc2)c1-c1ccc2nc(NC(=O)c3ccnc(F)c3)cn2n1` [Compound 233, 2-fluoro-N-(6-(4-(4-fluorophenyl)-1-(2-methoxyethyl)-1H-imidazol-5-yl)imidazo[1,2-b]pyridazin-2-yl)isonicotinamide], the pIC50 was 8.93 against CK1ε and 9.51 against CK1δ.
For `O=C(Nc1cn2nc(-c3c(-c4ccc(F)cc4)ncn3CCOCCO)ccc2n1)c1ccnc(F)c1` [Compound 234] the same measures were 8.64 and 9.34.
For `O=C(Nc1cn2nc(-c3c(-c4ccc(F)cc4)ncn3CC(F)(F)F)ccc2n1)c1ccnc(F)c1` [Compound 236] the same measures were 8.94 and 9.58.
Regarding `O=C(Nc1cn2nc(-c3c(-c4ccc(F)cc4)ncn3CC(F)F)ccc2n1)c1ccnc(F)c1` [Compound 237, N-(6-(1-(2,2-difluoroethyl)-4-(4-fluorophenyl)-1H-imidazol-5-yl)imidazo[1,2-b]pyridazin-2-yl)-2-fluoroisonicotinamide], the pIC50 at CK1ε was 8.87; at CK1δ it was 9.44.
Consider `NS(=O)(=O)CCCn1cnc(-c2ccc(F)cc2)c1-c1ccc2nc(NC(=O)c3ccnc(F)c3)cn2n1` [Compound 241], for which the pIC50 against CK1ε is 8.85; against CK1δ, 9.44.
